Results taken from PubChem BioAssay AID256 (DTP/NCI, 2004).
“And” between values parts separate entries of the source, which are not always exact repeats. Identical values can stand only once. Inconclusive results and toxic doses are left out. How the source made its calls: active means survival T/C of 150% or more; inactive means T/C below 125% in these data.

Test system: CD2F1 mice, L1210 leukemia ip, survival T/C
Test: NCI In Vivo Anticancer Drug Screen. Data for tumor model L1210 Leukemia (intraperitoneal) in CD2F1 (CDF1) mice
Conditions: higher = longer survival
Outline: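 Activity against a transplanted murine tumor was judged by comparing the compound group with a vehicle group. The outcome in the treated animals was divided by that in the controls.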

[1] = endpoint: mean survival time, dose: 50.0 mg/kg/injection, schedule: Q01DX009 (ip), vehicle: saline with Tween-80
[2] = endpoint: mean survival time, dose: 100.0 mg/kg/injection, schedule: Q01DX009 (ip), vehicle: saline with Tween-80
[3] = endpoint: mean survival time, dose: 200.0 mg/kg/injection, schedule: Q01DX009 (ip), vehicle: saline with Tween-80
[4] = endpoint: mean survival time, dose: 100.0 mg/kg/injection, schedule: Q04DX003 (ip), vehicle: saline with Tween-80
[5] = endpoint: mean survival time, dose: 200.0 mg/kg/injection, schedule: Q04DX003 (ip), vehicle: saline with Tween-80
[6] = endpoint: mean survival time, dose: 400.0 mg/kg/injection, schedule: Q04DX003 (ip), vehicle: saline with Tween-80
[7] = endpoint: mean survival time, dose: 6.25 mg/kg/injection, schedule: Q01DX009 (ip), vehicle: Klucel (hydroxypropylcellulose) (HPC)
[8] = endpoint: mean survival time, dose: 12.5 mg/kg/injection, schedule: Q01DX009 (ip), vehicle: Klucel (hydroxypropylcellulose) (HPC)
[9] = endpoint: mean survival time, dose: 25.0 mg/kg/injection, schedule: Q01DX009 (ip), vehicle: Klucel (hydroxypropylcellulose) (HPC)
[10] = endpoint: mean survival time, dose: 100.0 mg/kg/injection, schedule: Q04DX002 (ip), vehicle: saline with Tween-80

Measured: T/C

CCCC(=O)C(CC)C(O)(C(F)(F)F)C(F)(F)F (stereo not given)
inactive: endpoint: mean survival time, dose: 100.0 mg/kg/injection, schedule: Q04DX003 (ip), vehicle: Klucel (hydroxypropylcellulose) (HPC) 95 % of control | endpoint: mean survival time, dose: 200.0 mg/kg/injection, schedule: Q04DX003 (ip), vehicle: Klucel (hydroxypropylcellulose) (HPC) 108 % of control | endpoint: mean survival time, dose: 400.0 mg/kg/injection, schedule: Q04DX003 (ip), vehicle: Klucel (hydroxypropylcellulose) (HPC) 86 % of control

CCCOC(=O)c1cncn1C(C)c1ccccc1 (stereo not given)
inactive: endpoint: mean survival time, dose: 100.0 mg/kg/injection, schedule: Q01DX001 (ip), vehicle: saline 102 % of control

COc1cccc(OC)c1OC(=O)Nc1c(Cl)cccc1Cl
inactive: [1] 96 % of control | [2] 92 % of control | [3] 105 % of control

O=C(O)CC(NC(=O)OCc1ccccc1)C(=O)OCc1ccccc1 (stereo not given)
inactive: [2] 93 % of control | [4] 104 % of control | [3] 96 % of control | [5] 100 % of control | [6] 87 % of control

CC(C#N)(Nc1ccccc1)c1ccco1 (stereo not given)
inactive: endpoint: mean survival time, dose: 6.25 mg/kg/injection, schedule: Q01DX009 (ip), vehicle: other 102 % of control | endpoint: mean survival time, dose: 6.25 mg/kg/injection, schedule: Q04DX003 (ip), vehicle: other 94 % of control | endpoint: mean survival time, dose: 12.5 mg/kg/injection, schedule: Q01DX009 (ip), vehicle: other 100 % of control | endpoint: mean survival time, dose: 12.5 mg/kg/injection, schedule: Q04DX003 (ip), vehicle: other 95 % of control | endpoint: mean survival time, dose: 25.0 mg/kg/injection, schedule: Q01DX009 (ip), vehicle: other 94 % of control | endpoint: mean survival time, dose: 25.0 mg/kg/injection, schedule: Q04DX003 (ip), vehicle: other 106 % of control | endpoint: mean survival time, dose: 100.0 mg/kg/injection, schedule: Q01DX009 (ip), vehicle: other 90 % of control | endpoint: mean survival time, dose: 100.0 mg/kg/injection, schedule: Q04DX003 (ip), vehicle: saline 103 % of control | endpoint: mean survival time, dose: 200.0 mg/kg/injection, schedule: Q01DX009 (ip), vehicle: other 94 % of control | endpoint: mean survival time, dose: 200.0 mg/kg/injection, schedule: Q04DX003 (ip), vehicle: saline 101 % of control | endpoint: mean survival time, dose: 400.0 mg/kg/injection, schedule: Q04DX003 (ip), vehicle: saline 94 % of control

CCCCCCCCCCCCCCCC(=O)N(C(C)CCCN(CC)CC)C(C)CCCN(CC)CC (stereo not given)
inactive: [7] 101 % of control | [8] 100 % of control | [9] 91 % of control

COc1cc([N+](=O)[O-])ccc1NC=O
inactive: endpoint: mean survival time, dose: 25.0 mg/kg/injection, schedule: Q04DX002 (ip), vehicle: saline with Tween-80 103 % of control | endpoint: mean survival time, dose: 50.0 mg/kg/injection, schedule: Q04DX002 (ip), vehicle: saline with Tween-80 103 % of control | [10] 90 % of control

Nc1nc(N)c2c(n1)NCN(CCc1c(Cl)cccc1Cl)C2
inactive: endpoint: mean survival time, dose: 0.75 mg/kg/injection, schedule: Q01DX009 (ip), vehicle: distilled water + Tween-80 98 % of control | endpoint: mean survival time, dose: 1.5 mg/kg/injection, schedule: Q01DX009 (ip), vehicle: distilled water + Tween-80 102 % of control | endpoint: mean survival time, dose: 3.0 mg/kg/injection, schedule: Q01DX009 (ip), vehicle: distilled water + Tween-80 98 % of control | endpoint: mean survival time, dose: 6.0 mg/kg/injection, schedule: Q01DX009 (ip), vehicle: distilled water + Tween-80 98 % of control | endpoint: mean survival time, dose: 12.0 mg/kg/injection, schedule: Q01DX009 (ip), vehicle: distilled water + Tween-80 104 % of control | endpoint: mean survival time, dose: 24.0 mg/kg/injection, schedule: Q01DX009 (ip), vehicle: distilled water + Tween-80 98 % of control | endpoint: mean survival time, dose: 37.5 mg/kg/injection, schedule: Q01DX009 (ip), vehicle: distilled water + Tween-80 100 % of control | endpoint: mean survival time, dose: 75.0 mg/kg/injection, schedule: Q01DX009 (ip), vehicle: distilled water + Tween-80 97 % of control

CC1=CC(=O)C(CCC#N)C(C)(C)C1 (stereo not given)
inactive: [10] 91 % of control

CO/C=C1\Cc2cc(OC)c(OC)cc2C1=O
inactive: [4] 100 % of control | [5] 94 % of control | [6] 102 % of control

COc1ccc(C(O)C(C)c2ccc([N+](=O)[O-])cc2)cc1 (stereo not given)
inactive: endpoint: mean survival time, dose: 100.0 mg/kg/injection, schedule: Q01DX001 (ip), vehicle: saline with Tween-80 106 % of control | [2] 105 % of control | endpoint: mean survival time, dose: 200.0 mg/kg/injection, schedule: Q01DX001 (ip), vehicle: saline with Tween-80 93 % of control | [3] 103 % of control | endpoint: mean survival time, dose: 400.0 mg/kg/injection, schedule: Q01DX001 (ip), vehicle: saline with Tween-80 98 % of control | endpoint: mean survival time, dose: 400.0 mg/kg/injection, schedule: Q01DX009 (ip), vehicle: saline with Tween-80 94 % of control

Cn1c(=O)c2c(nc(Cl)n2Cc2ccccc2)n(C)c1=O
inactive: endpoint: mean survival time, dose: 12.5 mg/kg/injection, schedule: Q01DX005 (ip), vehicle: saline with Tween-80 93 % of control | endpoint: mean survival time, dose: 25.0 mg/kg/injection, schedule: Q01DX005 (ip), vehicle: saline with Tween-80 88 % of control | endpoint: mean survival time, dose: 50.0 mg/kg/injection, schedule: Q01DX005 (ip), vehicle: saline with Tween-80 87 % of control | endpoint: mean survival time, dose: 100.0 mg/kg/injection, schedule: Q01DX005 (ip), vehicle: saline with Tween-80 93 % of control

CC#CC(=O)O
inactive: endpoint: mean survival time, dose: 100.0 mg/kg/injection, schedule: Q04DX002 (ip), vehicle: saline 98 % of control

CC(=O)c1ccccc1[N+](=O)[O-]
inactive: [2] 94 % of control | [3] 95 % of control

Cc1nc(C(Cl)(Cl)Cl)[nH]c(=O)c1SCCO
inactive: endpoint: median survival time, dose: 25.0 mg/kg/injection, schedule: Q01DX009 (ip), vehicle: distilled water + alcohol 97 % of control and 100 % of control and 102 % of control | endpoint: median survival time, dose: 25.0 mg/kg/injection, schedule: Q01DX009 (sc), vehicle: distilled water + Tween-80 + alcohol 101 % of control | endpoint: median survival time, dose: 50.0 mg/kg/injection, schedule: Q01DX009 (sc), vehicle: distilled water + Tween-80 + alcohol 101 % of control | endpoint: median survival time, dose: 100.0 mg/kg/injection, schedule: Q01DX009 (sc), vehicle: distilled water + Tween-80 + alcohol 101 % of control | endpoint: median survival time, dose: 200.0 mg/kg/injection, schedule: Q01DX009 (sc), vehicle: distilled water + Tween-80 + alcohol 103 % of control

C1CC1C(=NN=C(C1CC1)C1CC1)C1CC1
inactive: endpoint: mean survival time, dose: 25.0 mg/kg/injection, schedule: Q01DX009 (ip), vehicle: saline with Tween-80 97 % of control | [1] 101 % of control | [4] 86 % of control

COc1cc(OC)c(NC(=O)Nc2cccc(C(=O)O)c2)cc1Cl
inactive: [1] 88 % of control | [2] 88 % of control | [3] 92 % of control

O=C1C(c2ccccc2)=[N+]([O-])[N+]([O-])=C1c1ccccc1
inactive: endpoint: mean survival time, dose: 50.0 mg/kg/injection, schedule: Q01DX009 (ip), vehicle: Klucel (hydroxypropylcellulose) (HPC) 97 % of control | endpoint: mean survival time, dose: 100.0 mg/kg/injection, schedule: Q01DX009 (ip), vehicle: Klucel (hydroxypropylcellulose) (HPC) 97 % of control | endpoint: mean survival time, dose: 200.0 mg/kg/injection, schedule: Q01DX009 (ip), vehicle: Klucel (hydroxypropylcellulose) (HPC) 101 % of control

COC(=O)CCN(c1ccccc1)c1ccc(C)cc1
inactive: [4] 97 % of control | [5] 97 % of control | [6] 97 % of control

CCCS(=O)(=O)Nc1ccc(Nc2c3ccccc3nc3ccccc23)c(OC)c1
inactive: endpoint: mean survival time, dose: 3.75 mg/kg/injection, schedule: Q01DX009 (ip), vehicle: saline 122 % of control

CCCCS(=O)(=O)F
inactive: endpoint: mean survival time, dose: 25.0 mg/kg/injection, schedule: Q04DX002 (ip), vehicle: saline 96 % of control | endpoint: mean survival time, dose: 50.0 mg/kg/injection, schedule: Q04DX002 (ip), vehicle: saline 101 % of control

O=S(=O)(CCCCCl)Nc1ccccn1
inactive: [10] 91 % of control | endpoint: mean survival time, dose: 200.0 mg/kg/injection, schedule: Q04DX002 (ip), vehicle: saline with Tween-80 94 % of control | endpoint: mean survival time, dose: 400.0 mg/kg/injection, schedule: Q04DX002 (ip), vehicle: saline with Tween-80 109 % of control

CNC(=O)OCc1c(COC(=O)NC)c(C)n(-c2ccccc2)c1C
inactive: [7] 109 % of control | [8] 106 % of control | [9] 104 % of control
